Test results as given in ChEMBL document CHEMBL1201862, “PubChem BioAssay data set” (2004).
The source made the active and inactive calls.

What was measured:
BJ [1] = test: cytotoxicity toward BJ-TERT fibroblasts, dose response, cell-based, RAS-independent, luminescence (AID 1933); assay type: functional; settings: Homo sapiens
BJ [2] = test: cells; assay type: functional, cell-based; settings: Homo sapiens
BJ [3] = test: cytotoxicity toward BJ-TERT-LT-ST fibroblasts, dose response, cell-based, RAS-independent, luminescence (AID 1935); assay type: functional; settings: Homo sapiens;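 also: BJ fibroblasts immortalized with TERT plus LT and ST oncogenes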
[4] = cytotoxicity toward DRD oncogenic fibroblasts, dose response, cell-based, non-viral oncogenic, luminescence (AID 1934); assay type: functional; settings: Homo sapiens
[5] = molecular target: T1, Short transient receptor potential channel 4 (Mus musculus, UniProt Q9QUQ5); test: mouse TRPC4 channel inhibitors, dose response, cell-based, HEK293 TRPC4/mu-opioid, Fluo-4 calcium (AID 434942); assay type: functional;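 also: potency of inhibitors blocking the TRPC4 calcium response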
T1 sequence (Q9QUQ5 whole entry): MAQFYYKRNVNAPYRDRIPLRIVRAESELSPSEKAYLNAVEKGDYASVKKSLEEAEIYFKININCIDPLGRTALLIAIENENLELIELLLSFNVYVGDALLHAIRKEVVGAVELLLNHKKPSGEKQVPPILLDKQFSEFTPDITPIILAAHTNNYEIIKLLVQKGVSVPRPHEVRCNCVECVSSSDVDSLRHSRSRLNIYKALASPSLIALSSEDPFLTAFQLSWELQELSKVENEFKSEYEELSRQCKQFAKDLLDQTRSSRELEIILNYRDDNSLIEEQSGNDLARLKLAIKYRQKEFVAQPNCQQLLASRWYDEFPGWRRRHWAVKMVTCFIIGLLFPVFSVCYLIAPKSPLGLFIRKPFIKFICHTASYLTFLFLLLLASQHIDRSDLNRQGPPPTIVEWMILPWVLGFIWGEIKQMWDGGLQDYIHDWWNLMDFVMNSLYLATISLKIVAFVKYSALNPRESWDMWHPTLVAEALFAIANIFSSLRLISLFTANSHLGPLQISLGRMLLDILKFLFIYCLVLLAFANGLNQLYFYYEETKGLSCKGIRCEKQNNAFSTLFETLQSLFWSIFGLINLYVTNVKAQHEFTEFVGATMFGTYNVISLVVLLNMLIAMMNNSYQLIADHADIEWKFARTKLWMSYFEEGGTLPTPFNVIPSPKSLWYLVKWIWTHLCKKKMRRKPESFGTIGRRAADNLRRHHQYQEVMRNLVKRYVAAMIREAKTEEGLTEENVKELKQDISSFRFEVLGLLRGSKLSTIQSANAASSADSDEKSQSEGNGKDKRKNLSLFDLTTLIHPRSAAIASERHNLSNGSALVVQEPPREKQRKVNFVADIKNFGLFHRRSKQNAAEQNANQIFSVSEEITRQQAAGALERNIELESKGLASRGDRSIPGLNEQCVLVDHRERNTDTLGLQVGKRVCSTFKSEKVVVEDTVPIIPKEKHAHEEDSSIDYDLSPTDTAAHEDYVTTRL

BJ [6] = test: cytotoxicity toward Ras-transformed BJeLR fibroblasts, dose response, cell-based, alamar blue fluorescence, cherrypicked samples (AID 2631); assay type: functional; settings: Homo sapiens;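 also: confirmatory dose-response assay in RAS-dependent BJ fibroblasts engineered with TERT, LT and ST, with cytotoxicity read by fluorescence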
Hexokinase-1 = molecular target: T2, Hexokinase-1 (Homo sapiens, UniProt P19367); test: SAR analysis of small molecule inhibitors of hexokinase domain containing I (HKDC1) in the hexokinase 1 selectivity assay. [Related pubchem assays (depositor defined):AID493160, AID493190]; assay type: functional
T2 sequence (P19367 whole entry): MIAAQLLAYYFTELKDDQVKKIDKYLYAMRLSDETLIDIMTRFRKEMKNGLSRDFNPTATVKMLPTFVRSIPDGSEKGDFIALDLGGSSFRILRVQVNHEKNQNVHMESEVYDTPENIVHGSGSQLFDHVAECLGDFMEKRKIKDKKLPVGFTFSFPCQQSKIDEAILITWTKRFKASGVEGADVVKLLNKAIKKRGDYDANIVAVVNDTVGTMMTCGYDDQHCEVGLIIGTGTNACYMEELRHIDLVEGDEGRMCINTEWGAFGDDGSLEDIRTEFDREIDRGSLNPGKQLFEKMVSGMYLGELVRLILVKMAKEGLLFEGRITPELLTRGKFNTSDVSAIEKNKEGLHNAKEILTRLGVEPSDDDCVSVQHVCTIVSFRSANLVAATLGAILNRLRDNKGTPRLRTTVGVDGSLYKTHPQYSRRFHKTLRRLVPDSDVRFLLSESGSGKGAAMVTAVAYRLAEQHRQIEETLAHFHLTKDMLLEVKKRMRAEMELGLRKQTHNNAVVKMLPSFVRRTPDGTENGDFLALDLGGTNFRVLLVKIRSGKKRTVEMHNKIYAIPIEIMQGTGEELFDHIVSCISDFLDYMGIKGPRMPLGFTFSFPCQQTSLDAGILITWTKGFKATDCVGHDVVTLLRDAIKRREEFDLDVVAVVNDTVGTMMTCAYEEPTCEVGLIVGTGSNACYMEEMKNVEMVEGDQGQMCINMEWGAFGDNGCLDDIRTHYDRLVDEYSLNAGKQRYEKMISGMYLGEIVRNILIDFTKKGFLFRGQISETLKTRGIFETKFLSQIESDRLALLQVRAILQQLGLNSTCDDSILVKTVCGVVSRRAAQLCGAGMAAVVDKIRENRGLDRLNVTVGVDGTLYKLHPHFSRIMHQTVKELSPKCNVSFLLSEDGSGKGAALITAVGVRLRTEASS

Hexokinase HKDC1 = molecular target: T3, Hexokinase HKDC1 (Homo sapiens, UniProt Q2TB90); test: SAR analysis of small molecule inhibitors of hexokinase domain containing I (HKDC1). [Related pubchem assays (depositor defined):AID493160, AID493190]; assay type: functional
T3 sequence (Q2TB90 whole entry): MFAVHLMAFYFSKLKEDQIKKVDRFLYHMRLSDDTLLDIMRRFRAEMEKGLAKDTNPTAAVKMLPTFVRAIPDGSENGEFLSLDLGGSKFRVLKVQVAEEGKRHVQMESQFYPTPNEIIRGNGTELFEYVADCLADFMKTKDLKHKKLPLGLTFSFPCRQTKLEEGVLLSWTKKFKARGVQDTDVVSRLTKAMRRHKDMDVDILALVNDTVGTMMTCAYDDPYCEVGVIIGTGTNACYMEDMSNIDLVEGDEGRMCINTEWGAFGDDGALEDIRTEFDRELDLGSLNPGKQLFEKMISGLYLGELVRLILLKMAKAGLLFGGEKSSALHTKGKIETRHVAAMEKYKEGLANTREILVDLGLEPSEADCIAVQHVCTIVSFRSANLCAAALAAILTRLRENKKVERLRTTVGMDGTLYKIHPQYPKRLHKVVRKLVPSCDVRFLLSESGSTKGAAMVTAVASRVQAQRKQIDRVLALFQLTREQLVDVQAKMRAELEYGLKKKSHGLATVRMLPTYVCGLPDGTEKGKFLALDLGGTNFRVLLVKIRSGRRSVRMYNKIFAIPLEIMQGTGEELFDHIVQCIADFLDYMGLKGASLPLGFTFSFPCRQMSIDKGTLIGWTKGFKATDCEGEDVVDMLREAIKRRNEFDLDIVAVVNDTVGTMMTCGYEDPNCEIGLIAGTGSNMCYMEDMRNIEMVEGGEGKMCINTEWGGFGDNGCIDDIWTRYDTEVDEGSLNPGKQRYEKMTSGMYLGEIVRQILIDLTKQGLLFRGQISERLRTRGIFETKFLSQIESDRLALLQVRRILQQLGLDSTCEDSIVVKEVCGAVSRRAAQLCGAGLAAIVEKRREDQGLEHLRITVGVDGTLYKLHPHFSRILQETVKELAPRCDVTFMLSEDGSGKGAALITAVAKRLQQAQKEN

[7] = molecular target: T4, Acyl-homoserine lactone acylase PvdQ (Pseudomonas aeruginosa (strain LESB58), UniProt Q9I194); test: P. aeruginosa PvdQ acylase inhibitors, dose response, biochemical, fluorescence, plate reader and imaging, cherry-picks (AID 493231)
T4 sequence (Q9I194 whole entry): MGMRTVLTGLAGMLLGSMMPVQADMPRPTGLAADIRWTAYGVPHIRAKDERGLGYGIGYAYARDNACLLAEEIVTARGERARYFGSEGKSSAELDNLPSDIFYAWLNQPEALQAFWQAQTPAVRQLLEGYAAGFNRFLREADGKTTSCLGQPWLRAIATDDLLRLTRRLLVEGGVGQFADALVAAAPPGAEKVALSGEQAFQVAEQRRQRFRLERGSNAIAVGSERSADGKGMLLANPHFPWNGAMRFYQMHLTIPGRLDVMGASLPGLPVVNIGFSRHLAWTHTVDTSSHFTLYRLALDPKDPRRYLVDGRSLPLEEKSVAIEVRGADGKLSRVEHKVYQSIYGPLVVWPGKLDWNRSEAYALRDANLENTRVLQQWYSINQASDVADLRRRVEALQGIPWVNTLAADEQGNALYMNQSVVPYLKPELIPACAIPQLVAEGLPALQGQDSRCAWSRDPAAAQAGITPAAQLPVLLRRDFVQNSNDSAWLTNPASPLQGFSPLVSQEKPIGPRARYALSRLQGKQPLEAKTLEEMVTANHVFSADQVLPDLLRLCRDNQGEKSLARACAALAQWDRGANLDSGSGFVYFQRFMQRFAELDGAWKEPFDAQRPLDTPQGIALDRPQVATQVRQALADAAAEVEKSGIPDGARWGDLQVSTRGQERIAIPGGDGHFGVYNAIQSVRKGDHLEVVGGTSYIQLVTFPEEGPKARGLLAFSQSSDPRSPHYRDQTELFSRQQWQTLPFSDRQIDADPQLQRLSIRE

[8] = molecular target: T5, Endoribonuclease toxin MazF (Escherichia coli K-12, UniProt P0AE70); test: MazF toxin RNase activators, dose response, biochemical, fluorescence, single-stranded RNA substrate, uHTS hits (AID 588481); assay type: functional
T5 sequence (P0AE70 whole entry): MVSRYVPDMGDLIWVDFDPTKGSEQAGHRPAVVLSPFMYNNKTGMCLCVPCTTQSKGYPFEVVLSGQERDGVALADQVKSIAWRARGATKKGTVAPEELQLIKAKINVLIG

HeLa = test: HeLa cell cytotoxicity, dose response, cytotoxicity control, 48 h, plate reader, cherry-picks (AID 504942); assay type: functional, cell-based; settings: Homo sapiens
[9] = molecular target: T5, Endoribonuclease toxin MazF; test: fluorescent RNA oligo signal without MazF, dose response, counter-screen for MazEF activator project, biochemical, fluorescence, single-stranded RNase substrate (AID 588502); assay type: functional
Protein skinhead-1 = molecular target: T6, Protein skinhead-1 (Caenorhabditis elegans, UniProt P34707); assay type: functional
T6 sequence (P34707 whole entry): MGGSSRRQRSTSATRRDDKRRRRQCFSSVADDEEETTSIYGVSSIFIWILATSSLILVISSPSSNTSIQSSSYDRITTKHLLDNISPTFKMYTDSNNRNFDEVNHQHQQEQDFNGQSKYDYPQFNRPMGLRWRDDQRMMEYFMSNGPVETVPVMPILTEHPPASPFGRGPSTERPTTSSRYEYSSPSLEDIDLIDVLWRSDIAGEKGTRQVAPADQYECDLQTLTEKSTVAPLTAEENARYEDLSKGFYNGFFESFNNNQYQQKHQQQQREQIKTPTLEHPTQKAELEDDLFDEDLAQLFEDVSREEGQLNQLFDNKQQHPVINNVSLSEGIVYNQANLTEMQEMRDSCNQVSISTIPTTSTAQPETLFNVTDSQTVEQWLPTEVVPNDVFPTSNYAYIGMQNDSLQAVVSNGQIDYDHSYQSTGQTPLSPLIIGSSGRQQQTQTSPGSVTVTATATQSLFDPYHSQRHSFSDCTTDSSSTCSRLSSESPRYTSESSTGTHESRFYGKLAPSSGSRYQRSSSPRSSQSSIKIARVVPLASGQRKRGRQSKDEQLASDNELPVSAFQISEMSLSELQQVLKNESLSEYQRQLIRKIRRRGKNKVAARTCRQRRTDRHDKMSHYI

[10] = Luminescence-based cell-based high throughput dose response assay to identify activators of the DAF-12 from the parasite S. stercoralis (ssDAF-12).; assay type: functional
[11] = molecular target: T7, Oxysterols receptor LXR-beta (Homo sapiens, UniProt P55055); test: LXR agonists, Gal4 luciferase reporter, dose response, counter-screen for ssDAF-12 agonist project, cell-based, luminescence, HEK293, S. stercoralis campaign (AID 720737); assay type: functional; settings: read-out: IC50 (the source's name)
T7 sequence (P55055 whole entry): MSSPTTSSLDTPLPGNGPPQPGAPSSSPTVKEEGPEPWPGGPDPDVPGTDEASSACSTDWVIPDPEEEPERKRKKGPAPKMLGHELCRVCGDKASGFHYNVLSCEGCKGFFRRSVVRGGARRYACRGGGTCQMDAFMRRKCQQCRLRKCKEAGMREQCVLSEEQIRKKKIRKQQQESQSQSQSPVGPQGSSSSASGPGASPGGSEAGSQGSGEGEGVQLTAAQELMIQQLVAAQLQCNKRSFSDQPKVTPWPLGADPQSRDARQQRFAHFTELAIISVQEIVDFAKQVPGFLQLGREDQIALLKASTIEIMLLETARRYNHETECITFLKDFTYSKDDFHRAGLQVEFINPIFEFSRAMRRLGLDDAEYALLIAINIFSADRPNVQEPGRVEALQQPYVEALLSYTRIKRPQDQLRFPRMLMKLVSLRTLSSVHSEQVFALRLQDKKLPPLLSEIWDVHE

HEK293 [12] = test: cytotoxicity in HEK293T NF-kB-Luc cells, SAR follow-up, cytotoxicity control for NF-kB activator project, cell-based, resazurin fluorescence (AID 493251); assay type: functional; settings: Homo sapiens
Jurkat = test: SAR Analysis of small molecule inhibitors of T-cell specific antigen receptor-induced NF-kB activation in a Jurkat cell line using a luminescence assay - Set 2. [Related pubchem assays (depositor defined):AID435003, AID435012, AID465]; assay type: functional, cell-based; settings: Homo sapiens
HEK293 [13] = test: SAR Analysis of small molecule inhibitors of T-cell specific antigen receptor-induced NF-kB activation in a HEK-293T cell line using a luminescence assay - Set 2. [Related pubchem assays (depositor defined):AID435003, AID435012, AID489026]; assay type: functional, cell-based; settings: Homo sapiens

## COC(=O)c1cccc(Nc2c3c(nc4ccccc24)CCC3)c1
BJ [1]
  EC50: 28.4 µM (active)
BJ [2]
  EC50: 18.2 µM (active)
BJ [3]
  EC50: > 150 µM (inconclusive)
[4]
  EC50: 19.2 µM (active)
[5]
  EC50: 2.11 µM (active)
BJ [6]
  EC50: > 133 µM (inactive)

## Cc1cccc(/C=C/c2nc3ccccc3c(=O)n2Cc2ccccc2)c1
Hexokinase-1
  IC50: > 80 µM (inactive)
Hexokinase HKDC1
  IC50: > 80 µM (inactive)

## N#C/C(=C/c1ccco1)c1nc2ccccc2s1
[7]
  AC50: 12.5 µM (active)
[8]
  EC50: 23.7 µM (inactive)
HeLa
  AC50: 53.7 µM (active)
[9]
  EC50: 54.8 µM (inactive)
Protein skinhead-1
  IC50: > 100 µM (inactive)
[10]
  IC50: > 67.5 µM (inactive)
[11]
  EC50: > 67.5 µM (inactive)

## Cc1ccc(C)c(NC(=O)c2ccc([N+](=O)[O-])o2)c1
HEK293 [12]
  IC50: > 80 µM (inactive)
Jurkat
  IC50: 14.1 µM (active)
HEK293 [13]
  IC50: 46.6 µM (inactive)
